Laboratory results from US20130022640A1, “IMMUNE MODULATORS RELATING TO FOXO3A” (Secretary, Department of Health and Human Services, priority 2010, published 2013).

Assays:
TcR-I T cells [1] = test: ELISPOT (IFN-γ, granzyme B) of TcR-I T cells re-isolated from treated TRAMP mice; type: in vivo, mouse
Experimental: (§1) Lymph node (LN) cells from TcR-I mice were prepared in a single-cell suspension. Cell numbers were adjusted to 3×10^6 TcR-I cells to be transferred intravenously (i.v.) into recipient mice. In some experiments, inhibitors to IDO (1-methly-D-tryptophan, 1MDT) and arginase ((S) 2-bronoethyl)-L-cysteine (BEC)) were added to the drinking water every 3 days (5 μg/ml).
(§2) A blocking anti-PD-1 antibody (Ab) (clone RMP1-14) (Yamazaki et al., J. Immunol., 175: 1586-1592 (2005)) was administered by intraperitoneal (i.p.) injection on days 0, 1, and 3 with respect to adoptive transfer of TcR-I T cells (250 μg/injection). Anti-TGF-β Ab was injected i.p. on days −1,0,1 and 2 with respect to TcR-I transfer (500 μg/injection). Anti-CD317 Ab (5 μg) (kindly provided by Dr. Marco Colonna) was injected i.p. on days −1 and 0 with respect to TcR-I transfer (Blasius et al., J. Immunol., 177: 3260-3265 (2006)).
Multiscreen plates (Millipore, Billerica, Mass.) were coated with 100 μl of capture Ab (R&D Systems Inc., Minneapolis, Minn.) overnight at 4° C. IFN-γ (1×10^5) or granzyme B (2×10^4) purified Thy 1.1^+ TcR T cells were added to increasing concentrations of TAg560-568. After incubation, plates were washed and processed as previously described (Shafer-Weaver et al., Cancer Research, 69: 6256-6264 (2009)).
It was next determined whether in vivo depletion of TADCs enhanced TcR-I effector function. TADCs were depleted via i.p. injection of anti-CD317 Ab into TRAMP mice. TcR-I T cells were then transferred into TRAMP mice with or without DC depletion. T cells were re-isolated on days 6 (FIGS. 3A and 3B) or 12 (FIGS. 3C and 3D) after transfer to assess CTL effector function.
Selective amino acid catabolism is a previously-described mechanism of immune dysfunction in cancer (Bronte et al., J. Exp. Med., 201: 1257-1268 (2005); Sharma et al., J. Clin. Invest., 117: 2570-2582 (2007); Srivastava et al., Cancer Res., 70: 68-77 (2010)). […]

TRAMP mice = test: UGT and prostate weights (tumor burden) after TcR-I transfer; type: in vivo, mouse; conditions: day 12 after TcR-I transfer, vs control/untreated
Experimental: as §1, §2
Control antibody or anti-CD317 antibody was injected i.p. into TRAMP mice on days −1 and 0 relative to T cell transfer. Weights of total urogenital tract (UGT) and dissected prostates were obtained at day 12. […]
Given the enhanced effector functions seen following inhibitory molecule blockade, the effect of blocking these suppressive mediators on anti-tumor immunity was tested. […] UGT weights (FIG. 7A) and prostate weights (FIG. 7B) were assessed on day 12 after TcR-I transfer.

TcR-I T cells [2] = test: In vitro suppressor assay after 4 day culture of TcR-I T cells with TRAMP DC and blocking agents; type: cell-based, mouse; conditions: TRAMP DC + agent
Experimental: (§3) Naïve TcR-I T cells were co-cultured with DC for 72 hours. TcR-I cells were then re-isolated via negative selection with magnetic beads. To assess tolerance, TcR-I T cells were subjected to secondary stimulation with normal splenocytes and TAg. After 48 hours, wells were pulsed with 1 μCi [^3H] thymidine (Amersham, Buckinghamshire, England) for 12 hours. To assess suppressor activity, graded numbers of TcR-I T cells were added to 1×10^4 responder 37B7 TRP-2-specific T cells (Singh et al., J. Immunother., 32: 129-139 (2009)), 1×10^5 splenocytes, and 5 μM TRP-2, and incubated for 72 h at 37° C. One μCi of [^3H] thymidine per well was added for an additional 16 h and harvested as described above.
(§4) To investigate the effects of blocking IDO in vitro, 1MDT was also added to purified DC cultures to inhibit IDO activity during DC stimulation of TcR-I proliferation (FIG. 6A). Tolerance was assessed by testing secondary stimulation 4 days after primary culture with 1 MDT, a blocking agent to suppressive mediator IDO (FIG. 6D).
(§5) To investigate the effects of blocking PD-1 in vitro, anti-PD-1 antibody was added to cultures of TcR-I T cells and TRAMP or WT prostate DCs. Tolerance was assessed by testing secondary stimulation 4 days after primary culture with blocking agents, including anti-PD-1 antibody, to suppressive mediators (FIG. 6D). Suppressor activity was also measured after 4 day culture with blocking agents, including anti-PD-1 antibody, and the results are shown in Table 9.

TcR-I T cells [3] = test: In vitro TcR-I proliferation and tolerance with TRAMP DCs and blocking agents; type: cell-based, mouse
Experimental: Naïve TcR-I T cells were used as responder cells in a proliferation assay; 2×10^4 T cells were stimulated with antigen and 2×10^4 isolated prostatic DCs. After 72 h of culture, wells were pulsed with 1 μCi [^3H] thymidine (Amersham, Buckinghamshire, England) for 16 h. The cells were then harvested using a Cell Harvester (Tomtec, Hamden, Conn.) and radioactivity was measured in a Liquid Scintillation Counter (WALLAC MICROBETA™ TriLux, PerkinElmer, Waltham, Mass.).
as §3, with “To assess suppressor activity, graded numbers of TcR-I T cells were added to 1×10^4 responder 37B7 TRP-2-specific T cells (Singh et al., J. Immunother., 32: 129-139 (2009)), 1×10^5 splenocytes, and 5 μM TRP-2, and incubated for 72 h at 37° C.” left out
as §4
as §5, with “6D).” for “6D). Suppressor activity was also measured after 4 day culture with blocking agents, including anti-PD-1 antibody, and the results are shown in Table 9.”

[4] = 6 days after transfer into TRAMP mice, vs untreated/control Ab

Compound | IFN-γ secretion by TcR-I T cells (TcR-I T cells [1]; [4]) | granzyme B secretion by TcR-I T cells (TcR-I T cells [1]; [4]) | TcR-I T cell antigen responsiveness (TcR-I T cells [1]; day 12 after transfer / 12 days of treatment, TRAMP mice) | prostate weight (TRAMP mice) | total urogenital tract (UGT) weight (TRAMP mice) | % Suppression for Each Source of Primary Stimulation (TcR-I T cells [2]; Suppressor:Responder 1:1) [%] | % Suppression for Each Source of Primary Stimulation (TcR-I T cells [2]; Suppressor:Responder 1:2) [%] | % Suppression for Each Source of Primary Stimulation (TcR-I T cells [2]; Suppressor:Responder 1:4) [%] | % Suppression for Each Source of Primary Stimulation (TcR-I T cells [2]; Suppressor:Responder 2:1) [%] | TADC-stimulated TcR-I proliferation (TcR-I T cells [3]; agent added to in vitro culture, primary stimulation) | tolerization of TcR-I T cells during co-culture (TcR-I T cells [3]; secondary stimulation 4 days after primary culture with agent) | TcR-I responsiveness (block of in vitro tolerization) (TcR-I T cells [3]; blocking ARG in vitro)
Cn1cc(C[C@@H](N)C(=O)O)c2ccccc21 [1MDT, 1-methyl-D-tryptophan] | significantly increased | significantly increased | loss of antigen responsiveness | statistically significant decrease | statistically significant decrease | 20 | 15 | 8 | 30 | enhanced | did not prevent them from becoming tolerized | 
N=C(NO)NCC[C@H](N)C(=O)O [Nor-NOHA] |  |  |  |  |  |  |  |  |  |  |  | did not enhance TcR-I responsiveness
